According to patent publication US20250215004A1, “AZOLO COMPOUNDS FOR TREATMENT OF FIBROTIC DISEASES” (GEORG-AUGUST-UNIVERSITÄT GÖTTINGEN STIFTUNG ÖFFENTLICHEN …, priority 2022, published 2025):
≈ marks a conversion by molar mass, not a printed value.

Tests used:
Format in all cases: cell-based
[1] = system: TK173 cells; experiment: Collagen I Western blot in TGFβ1-treated TK173 fibroblasts; conditions: Homo sapiens, Fibroblast, 10 ng/ml TGFβ1 for 5 days, then compound 48 hours, Collagen I immunoblot
Experimental: (§1) Compound reconstitution. Prior to treatment, each compound was used from a stock solution of a concentration of 10 mg/ml in DMSO. Final concentration of DMSO in cell cultures was kept below 0.1%.
(§2) Cell culture and treatment. The human renal fibroblast cell line TK173 was derived from a normal human kidney (laboratory stock; (G. A. Müller et al., Exp. Nephrol. 1995, 3, 127). Cell line stabilization for research purposes was approved by the Ethics Committee of the Georg-August-University. TK173 cells were cultured in Dulbecco's modified Eagle's medium (DMEM, Gibco, USA) supplemented with 10% fetal bovine serum (FBS, Gibco, Germany) and 1% penicillin-streptomycin (PS, Gibco, USA) at 37° C. in a humidified atmosphere with 5% CO2. Cell line was routinely tested for mycoplasma contamination. To investigate the effect of compounds after profibrotic agent treatment, 3×10^4 TK173 cells were seeded in one well of a 6-well culture plate in normal medium. After 24 hours, the culture medium was removed, and the cells were incubated for a further 24 hours in FBS free culture medium (starvation medium). Then, 10 ng/ml TGFβ1 (R&D Systems, USA) was added to the starvation medium, and the culture medium was changed with fresh TGFβ1 in every alternate day. After 5 days of TGFβ1 treatment, cell culture medium was replaced by starvation medium with compounds at different concentration for following 48 hours of incubation.
Protein Extraction. Total proteins were extracted from the cultured cells by NP40 Cell Lysis Buffer (Invitrogen, USA) containing phosphatase (Sigma-Aldrich, USA) and protease inhibitor (Roche, Switzerland) followed by sonication and centrifugation at 12,000×g for 20 minutes at 4° C. to clear the lysates. The supernatant was collected and measured using Pierce BCA Protein Assay Kit (ThermoFisher Scientific) by PHOmo Microplate Reader (Autobio, China). The samples were stored at −80° C. prior to use.
Immunoblotting. Western blot analysis, 10 μg of extracted proteins were diluted in NuPAGE LDS Samples Buffer (Novex Life technologies, USA) containing 5% 2-Mercaptoethanol (Sigma-Aldrich, Germany), and following denatured for 5 minutes at 95° C. The proteins were resolved by 4-12% NuPAGE SDS-PAGE (Novex Life technologies, USA). Blots were often stripped with Thermo Scientific Restore PLUS Western Blot Stripping Buffer (Thermo Fisher Scientific, Germany) for reprobing. The following antibodies were used for immunoblotting: Collagen I (1:1000; ab233080, Abcam, USA), alpha smooth muscle Actin (1:1000; ab124964, Abcam, USA), GAPDH (1:8000; sc-32233, Santa Cruz, USA). Proteins were detected by LumiGLO chemiluminescent system (Cell Signaling Technology, USA) with appropriate secondary antibodies: anti-mouse HRP (1:2500; Dako, Denmark) and anti-rabbit HRP (1:2500; 7074, Cell Signaling Technology, USA) using ChemiDoc MP Imaging System (Bio-Rad, USA).

[2] = system: TK173 cells; experiment: Collagen I mRNA PCR assay (qPCR, normalized to GAPDH) in TGFβ1-treated TK173 fibroblasts; conditions: Homo sapiens, Fibroblast, 10 ng/ml TGFβ1 for 5 days, then compound 48 hours
Experimental: as §1, §2
RNA isolation. Total RNA was extracted by the TRIzol reagent (Life technologies, USA) and purified by PureLink RNA Mini Kit (Ambion, USA) according to instructions available from the manufacturer with minor modifications. The samples were stored at −80° C. prior to use. RNA concentrations were measured by NanoDrop Spectrophotometer (ThermoFisher Scientific, USA), and were equilibrated to 100 ng for complementary DNA (cDNA) synthesis.
Quantitative real-time PCR analysis (qPCR). For SYBR Green-based qPCR analysis, cDNA preparation was performed by using DNAse I (Sigma-Aldrich, USA) digestion to remove residual genomic DNA and SuperScript II Reverse Transcriptase kit (Invitrogen, USA) to synthesize cDNA following the manufacturer's detailed instructions. All qPCR reactions were performed using the StepOne Plus Real-Time System (Applied Biosystems, USA) and amplifications were done using the SYBR Green PCR Master Mix (Applied Biosystems, USA). The thermal cycling conditions were initiated to 95° C. for 20 seconds, 40 amplification cycles at 95° C. for 3 seconds and 60° C. for 30 seconds, with one cycle of dissociation at 95° C. for 15 seconds, 60° C. for 60 seconds, and 95° C. for 15 seconds. Three replicates per sample were run in duplicate. The experimental cycle threshold (Ct) values were normalized to those obtained for GAPDH, and the relative gene expression level was determined using the 2_ddCT methods.

[3] = system: TK173 cells; experiment: ELISA to detect secreted type I collagen (Pro-Collagen I alpha 1) in conditioned media of TGFβ1-treated TK173 fibroblasts; conditions: Homo sapiens, Fibroblast, 10 ng/ml TGFβ1 for 5 days, then compound 48 hours, Pro-Collagen I alpha 1 ELISA of conditioned media, read-out: IC50, concentration where the TGFβ-stimulated collagen secretion is attenuated by 50%
Experimental: as §1, §2
Conditioned media containing the secretome of TK173 fibroblast were harvested after 48 hours of compound treatments. Secretion of pro-Collagen 1 was assessed with Human Pro-Collagen I alpha 1 DuoSet ELISA (R&D Systems, USA). To prepare the ELISA plate, Human Pro-Collagen I α1 Capture Antibody was diluted in ELISA Plate-coating Buffer at 4 μg/ml working concentration. 100 μl of diluted Capture Antibody was added to the 96-well microplates and incubated overnight at room temperature. After three times washing with Wash Buffer, microplates were blocked by adding 300 μl of Reagent Diluent for 1 hour at room temperature. To proceed the ELISA, Human Pro-Collagen I α1 Standards were diluted in Reagent Diluent (range between 31.3 pg/ml-2000 pg/ml) and 100 μl of standards or conditioned mediums were add into designated wells. Microplates were incubated at room temperature for 2 hours. Human Pro-Collagen I α1 Detection Antibody was prepared in Reagent Diluent at 100 ng/ml working concentration and 100 μl of diluted Detection Antibody was applied for 2 hours at room temperature after extensive washing. Then, working solution of Streptavidin-HRP with Reagent Diluent was prepared by diluting 1:40 and added into each well. After 20 minutes at room temperature incubation, microplates were washed and applied with 100 μl of Substrate Solution for 20 minutes followed by Stop Solution after washing. Finally, signals were measured at 450 nm absorbance by PHOmo Microplate Reader (Autobio, China). The amount of pro-collagen 1 antibody fusion was quantified by extrapolating the signal into a linear range of a pro-collagen 1 standard curve. Screening compounds were typically tested in at concentrations between 5 and 200 μg/ml. The IC50 values observed by the dose response curves for each compound (n=4-6, two independent experiments) were obtained by nonlinear regression analysis using Prism 9 software (GraphPad, La Jolla, USA) and represent the concentration where the TGFβ-stimulated collagen secretion is attenuated by 50%.

SMILES	IC50 [1] [µg/mL]	IC50 [2] [µg/mL]	IC50 [3] [µg/mL]
c1ccc2c(c1)cnn1nnnc21 [Compound 1, Tetrazolo[5,1-a]phthalazine]	< 40	< 80	157 (≈ 917 µM)
Cc1nn2c(C)nnc2c2ccccc12 [Compound 5, 3,6-Dimethyl-1,2,4-triazolo[3,4-a]phthalazine]	–	< 20	39 (≈ 197 µM)
Cc1nnc2c3cc(Cl)c(Cl)cc3cnn12 [Compound 53, 8,9-Dichloro-3-methyl-[1,2,4]triazolo[3,4-a]phthalazine]	< 60	–	< 20
[2H]C([2H])([2H])c1nnc2c3ccccc3cnn12 [Compound 12, 3-D3-Methyl-1,2,4-triazolo[3,4-a]phthalazine]	< 5	< 50	–
Cc1nnc2c3cc(F)c(F)cc3cnn12 [Compound 65, 8,9-difluoro-3-methyl-[1,2,4]triazolo[3,4-a]phthalazine]	< 50	–	< 50
Cc1nnc2c3ccccc3cnn12 [Compound 3, 3-Methyl-1,2,4-triazolo[3,4-a]phthalazine]	< 5	< 20	96 (≈ 521 µM)
COc1ccc2c(cnn3c(C)nnc23)c1 [Compound 69b, 8-methoxy-3-methyl-[1,2,4]triazolo[3,4-a]phthalazine]	< 80	–	< 30
c1ccc2c(c1)cnn1cnnc21 [Compound 15, 1,2,4-Triazolo[3,4-a]phthalazine]	< 40	–	105 (≈ 617 µM)
Fc1ccc2c(cnn3nnnc23)c1 [Compound 63b, 8-fluorotetrazolo[5,1-a]phthalazine]	< 30	–	< 50
COc1ccc2cnn3c(C)nnc3c2c1 [Compound 69a, 9-Methoxy-3-methyl-[1,2,4]triazolo[3,4-a]phthalazine]	< 30	–	< 30
Clc1ccc2c(cnn3nnnc23)c1 [Compound 51b, 8-chlorotetrazolo[5,1-a]phthalazine]	< 5	< 5	–
